Experimental data from patent publication US10052320B2, “Substituted quinoxalines as FGFR kinase inhibitors” (ASTEX THERAPEUTICS LIMITED, priority 2011, dated 2018).
pIC50: −log10 of the molar value. Where two headings read alike, the source gives them in different places.

What was measured:
[1] = tested on: Ba/F3-Flt3-transfected cells in the presence of 10 ng/ml murine IL3; experiment: Ba/F3-Flt3 (plus IL3) cellular proliferation counterscreen, Alamar Blue; type: cell-based; conditions: Mus musculus, read-out: BAF3-FLT3 (PLUS IL3) 384 well pIC50 (converted)
Method: (§1) Ba/F3-Flt3 (Minus IL3 or Plus IL3) (Cellular Proliferation Assay)
(§2) In a 384 well plate, 100 nl of compound dilution in DMSO was sprayed before adding 50 μl cell culture medium (phenol red free RPMI-1640, 10% FBS, 2 mM L-Glutamine and 50 μg/ml Gentamycin) containing 20000 cells per well of Ba/F3-Flt3-transfected cells. Cells were put in an incubator at 37° C. and 5% CO2. After 24 hours, 10 μl of Alamar Blue solution (0.5 mM K3Fe(CN)6, 0.5 mM KaFe(CN)6, 0.15 mM Resazurin and 100 mM Phosphate Buffer) was added to the wells, incubated for 4 hours at 37° C. and 5% CO2 before RFU's (Relative Fluorescence Units) (ex. 540 nm., em. 590 nm.) were measured in a flurorescence plate reader.
As a counterscreen the same experiment was performed in the presence of 10 ng/ml murine IL3.
as §2, with “a 96” for “a 384”, “plate, 180” for “plate, 100 nl of compound dilution in DMSO was sprayed before adding 50”, “containing 10000” for “containing 20000”, “Ba/F3-Flt3-transfected cells were pipette and 20 μl of compound dilution in DMSO was added.” for “Ba/F3-Flt3-transfected cells.”, “hours, 40” for “hours, 10”

[2] = target: T1, Ba/F3-Flt3-transfected cells (Homo sapiens, UniProt P36888, cells depend on it, form not given); experiment: Ba/F3-Flt3 (minus IL3) cellular proliferation assay, Alamar Blue; type: cell-based
T1 sequence (P36888 1-993): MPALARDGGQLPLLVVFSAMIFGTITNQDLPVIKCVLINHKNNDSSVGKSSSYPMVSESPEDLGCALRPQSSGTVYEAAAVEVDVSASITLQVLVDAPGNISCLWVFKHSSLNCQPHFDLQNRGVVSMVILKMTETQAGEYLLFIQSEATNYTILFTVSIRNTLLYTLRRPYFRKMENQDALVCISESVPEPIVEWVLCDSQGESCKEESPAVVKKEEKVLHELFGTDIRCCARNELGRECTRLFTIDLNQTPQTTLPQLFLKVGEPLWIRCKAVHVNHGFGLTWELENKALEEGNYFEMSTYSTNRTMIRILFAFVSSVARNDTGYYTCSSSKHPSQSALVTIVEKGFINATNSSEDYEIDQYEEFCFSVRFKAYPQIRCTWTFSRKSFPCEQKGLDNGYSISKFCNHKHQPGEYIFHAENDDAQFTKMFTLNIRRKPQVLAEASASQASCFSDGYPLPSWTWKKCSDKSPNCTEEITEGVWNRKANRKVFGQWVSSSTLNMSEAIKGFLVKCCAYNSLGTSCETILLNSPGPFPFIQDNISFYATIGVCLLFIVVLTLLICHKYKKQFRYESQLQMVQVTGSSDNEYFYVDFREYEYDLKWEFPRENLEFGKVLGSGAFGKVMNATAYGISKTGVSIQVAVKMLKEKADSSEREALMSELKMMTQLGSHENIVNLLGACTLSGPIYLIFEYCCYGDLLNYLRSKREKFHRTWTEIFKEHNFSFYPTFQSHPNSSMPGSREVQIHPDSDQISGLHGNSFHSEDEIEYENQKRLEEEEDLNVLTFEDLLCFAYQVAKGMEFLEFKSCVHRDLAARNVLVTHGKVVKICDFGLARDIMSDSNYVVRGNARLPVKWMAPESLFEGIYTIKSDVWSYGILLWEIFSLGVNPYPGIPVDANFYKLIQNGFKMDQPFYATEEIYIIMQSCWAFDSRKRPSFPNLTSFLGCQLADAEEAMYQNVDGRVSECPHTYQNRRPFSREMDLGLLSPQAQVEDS
Method: as §1
Cells were put in an incubator at 37° C. and 5% CO2. After 24 hours, 10 μl of Alamar Blue solution (0.5 mM K3Fe(CN)6, 0.5 mM KaFe(CN)6, 0.15 mM Resazurin and 100 mM Phosphate Buffer) was added to the wells, incubated for 4 hours at 37° C. and 5% CO2 before RFU's (Relative Fluorescence Units) (ex. 540 nm., em. 590 nm.) were measured in a flurorescence plate reader. […]
as §2, with “a 96” for “a 384”, “plate, 180” for “plate, 100 nl of compound dilution in DMSO was sprayed before adding 50”, “containing 10000” for “containing 20000”, “Ba/F3-Flt3-transfected cells were pipette and 20 μl of compound dilution in DMSO was added.” for “Ba/F3-Flt3-transfected cells.”, “hours, 40” for “hours, 10”

KDR (h) (VEGFR2) = KDR (h) (VEGFR2) (Homo sapiens, UniProt P35968); experiment: KDR (VEGFR2) (enzymatic assay), TR-FRET; type: biochemical
Method: KDR (VEGFR2) (Enzymatic Assay)
In a final reaction volume of 30 μL, KDR (h) (150 ng/ml) was incubated with 50 mM HEPES pH 7.5, 6 mM MnCl2, 1 mM DTT, 0.1 mM Na3VO4, 0.01% Triton-X-100, 500 nM Btn-Flt3 and 3 μM ATP in the presence of compound (1% DMSO final). After incubation for 120 minutes at room temperature the reaction was stopped with 2.27 nM EU-anti P-Tyr, 7 mM EDTA, 31.25 nM SA-XL-665 and 0.02% BSA which was present for 60 minutes at room temperature. Time-Resolved Fluorescence Resonance Energy Transfer (TR-FRET) signal (ex340 nm. Em 620 nm, em 655 nm) was measured afterwards and results are expressed in RFU (Relative Fluorescence Units).

Chain of KDR (h) (VEGFR2) (P35968 20-1356): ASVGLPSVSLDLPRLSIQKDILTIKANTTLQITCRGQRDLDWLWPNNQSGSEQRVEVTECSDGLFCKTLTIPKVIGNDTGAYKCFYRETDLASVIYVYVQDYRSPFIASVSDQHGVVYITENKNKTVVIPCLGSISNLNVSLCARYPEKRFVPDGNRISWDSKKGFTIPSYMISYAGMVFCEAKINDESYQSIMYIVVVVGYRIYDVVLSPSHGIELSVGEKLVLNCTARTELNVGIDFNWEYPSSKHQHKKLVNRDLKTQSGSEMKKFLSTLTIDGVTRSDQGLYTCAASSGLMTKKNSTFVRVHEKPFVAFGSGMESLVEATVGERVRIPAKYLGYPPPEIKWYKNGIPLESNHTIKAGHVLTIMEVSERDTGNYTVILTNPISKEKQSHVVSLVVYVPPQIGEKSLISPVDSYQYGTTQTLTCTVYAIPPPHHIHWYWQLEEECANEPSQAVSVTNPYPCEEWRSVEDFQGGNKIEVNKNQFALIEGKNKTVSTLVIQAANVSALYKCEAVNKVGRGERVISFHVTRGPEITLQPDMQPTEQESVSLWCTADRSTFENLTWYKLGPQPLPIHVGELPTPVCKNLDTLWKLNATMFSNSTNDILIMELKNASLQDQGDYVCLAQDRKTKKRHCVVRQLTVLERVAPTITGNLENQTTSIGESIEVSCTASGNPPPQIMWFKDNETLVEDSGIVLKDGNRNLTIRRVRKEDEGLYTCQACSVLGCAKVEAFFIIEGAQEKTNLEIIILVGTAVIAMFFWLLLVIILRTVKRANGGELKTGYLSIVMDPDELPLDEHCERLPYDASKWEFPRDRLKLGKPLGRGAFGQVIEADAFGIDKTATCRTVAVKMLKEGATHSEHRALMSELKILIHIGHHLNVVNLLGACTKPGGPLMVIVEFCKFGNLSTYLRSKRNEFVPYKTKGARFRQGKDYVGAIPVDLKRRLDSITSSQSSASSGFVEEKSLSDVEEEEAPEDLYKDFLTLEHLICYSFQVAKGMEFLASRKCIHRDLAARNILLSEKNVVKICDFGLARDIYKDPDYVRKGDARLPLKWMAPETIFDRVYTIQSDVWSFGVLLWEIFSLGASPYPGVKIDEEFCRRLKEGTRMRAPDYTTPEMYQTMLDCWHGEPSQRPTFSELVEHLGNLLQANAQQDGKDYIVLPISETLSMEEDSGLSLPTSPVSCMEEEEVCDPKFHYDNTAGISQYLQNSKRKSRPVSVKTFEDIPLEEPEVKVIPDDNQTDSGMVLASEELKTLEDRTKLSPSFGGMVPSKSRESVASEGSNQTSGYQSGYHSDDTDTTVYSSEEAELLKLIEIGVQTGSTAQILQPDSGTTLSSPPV

| Compound | BAF3-FLT3 (MIN IL3) 384 well pIC50 ([2]; minus IL3) | pIC50 (KDR (h) (VEGFR2)) | BAF3-FLT3 (MIN IL3) 96 well pIC50 ([2]; minus IL3) | BAF3-FLT3 (MIN IL3) 96 well pIC50 ([2]; minus IL3, 96 well) | BAF3-FLT3 (MIN IL3) 384 well pIC50 ([2]; minus IL3, 384 well) | IC50 ([1]; plus 10 ng/ml murine IL3) [µM] | IC50 ([1]; plus IL3, 384 well) [µM] |
| --- | --- | --- | --- | --- | --- | --- | --- |
| COc1cc(OC)cc(N(CC2CC2)c2ccc3ncc(N4CCN(CCO)CC4)nc3c2)c1 [Compound 49] | <5 | 5.40 | 5.2 |  |  | > 10 |  |
| COc1cc(OC)cc(N(CC2CC2)c2ccc3ncc(N4CCOCC4)nc3c2)c1 [Compound 63] |  | 5.18 |  | <5 | <5 |  | > 10 |
| COc1cc(OC)cc(N(CC2CC2)c2ccc3ncc(N4CCN(C)CC4)nc3c2)c1 [Compound 64] |  | 5.26 |  | ~5.12 | <5 |  | > 10 |
| COc1cc(OC)cc(N(CC2CC2)c2ccc3ncc(C(=O)N4CCC4)nc3c2)c1 [Compound 93] | <5 | < 5.00 | <5 |  |  | > 10 |  |
| COc1cc(OC)cc(N(CCCO)c2ccc3ncc(-c4ccnc(C(=O)NCCCCCN)c4)nc3c2)c1 [Compound 130] | <5 | 6.26 |  |  |  | > 10 |  |
| COc1cc(OC)cc(N(CCCO)c2ccc3ncc(-c4ccnc(-c5ccnc(Cl)c5)c4)nc3c2)c1 [Compound 133] | <5 | < 6.00 |  |  |  | > 10 |  |

These reach a higher pIC50 (KDR (h) (VEGFR2)). Values come first.

| BAF3-FLT3 (MIN IL3) 384 well pIC50 ([2]; minus IL3) | pIC50 (KDR (h) (VEGFR2)) | BAF3-FLT3 (MIN IL3) 96 well pIC50 ([2]; minus IL3) | BAF3-FLT3 (MIN IL3) 96 well pIC50 ([2]; minus IL3, 96 well) | BAF3-FLT3 (MIN IL3) 384 well pIC50 ([2]; minus IL3, 384 well) | Compound | IC50 ([1]; plus 10 ng/ml murine IL3) [µM] | IC50 ([1]; plus IL3, 384 well) [µM] |
| --- | --- | --- | --- | --- | --- | --- | --- |
| <5 | 6.29 |  |  |  | COc1cc(OC)cc(N(CCNC(C)C)c2ccc3ncc(-n4cnc(CO)c4)nc3c2)c1 [Compound 77] | > 10 |  |
| 5 | 6.35 |  |  |  | COc1cc(OC)cc(N(CCNC(C)C)c2ccc3ncc(N4CCC(CN)CC4)nc3c2)c1 [Compound 67] | > 10 |  |
| <5 | 6.44 |  |  |  | CNc1ccc(-c2cnc3ccc(N(CCCNCC(F)(F)F)c4cc(OC)cc(OC)c4)cc3n2)cn1 [Compound 129] | > 10 |  |
| 5.31 | 6.51 |  |  |  | COc1cc(OC)cc(N(CCCNCCCO)c2ccc3ncc(-c4ccnc(C(=O)NCCCCN)c4)nc3c2)c1 [Compound 132] | ~5.5 |  |
| <5 | 6.52 |  |  |  | COc1cc(OC)cc(N(CCCNCC(=O)O)c2ccc3ncc(-c4ccnc(C(=O)NCCCCN)c4)nc3c2)c1 [Compound 44] | > 10 |  |
| <5 | 6.61 |  |  |  | COc1cc(OC)cc(N(CCCO)c2ccc3ncc(-c4ccnc(C(=O)N5CCOCC5)c4)nc3c2)c1 [Compound 43] | > 10 |  |
| <5 | 6.64 |  |  |  | COc1cc(OC)cc(N(CCN2CCN(C(C)=O)CC2)c2ccc3ncc(-c4ccc(N)nc4)nc3c2)c1 [Compound 68] | > 10 |  |
| 5.5 | 6.70 |  |  |  | COc1cc(OC)cc(N(CCCNC(C)C)c2ccc3ncc(-c4ccnc(NC(=O)NC(C)C)c4)nc3c2)c1 [Compound 131] | 3.63 |  |
| 5.28 | 7.34 |  |  |  | COc1cc(OC)cc(N(CCN2CCNCC2)c2ccc3ncc(-c4ccc(N)nc4)nc3c2)c1 [Compound 59] | > 10 |  |
